What was measured:
EKVX = assay: NCI 60 panel growth inhibition (SRB), non-small cell lung cancer; format: cell-based, human; settings: 10 μM
Method: (§1) Screening of cytotoxic activity against a panel of sixty human tumor cell lines The selected compounds by NCI were evaluated for their anticancer activity in a two- stage process. […] Then, the output from the single dose screen is reported as a mean graph. […] Assay protocol. […] For a typical screening experiment, cells are inoculated into 96 well microtiter plates in 100 µL at plating densities ranging from 5000 to 40,000 cells/well depending on the doubling time of individual cell lines. […] After 24 h, two plates of each cell line are fixed in situ with TCA, to represent a measurement of the cell population for each cell line at the time of drug addition (Tz). The experimental drugs are solubilized in dimethyl sulfoxide at 400-fold the desired final maximum test concentration and stored frozen prior to use. At the time of drug addition, an aliquot of frozen concentrate is thawed and diluted to twice the desired final maximum test concentration with complete medium containing 50 µg/mL gentamicin. Additional four, 10-fold or ½ log serial dilutions are made to provide a total of five drug concentrations plus control. […] For adherent cells, the assay is terminated by the addition of cold TCA. […] The supernatant is discarded, and the plates are washed five times with tap water and air dried. […] Using the seven absorbance measurements [time zero, (Tz), control growth, (C), and test growth in the presence of drug at the five concentration levels (Ti)], the percentage growth is calculated at each of the drug concentrations levels. Percentage growth inhibition is calculated as: [(Ti Tz)/(C–Tz)] x 100 for concentrations for which Ti>/=Tz and [(Ti-Tz)/Tz] x 100 for concentrations for which Ti < Tz. Three dose response parameters are calculated for each experimental agent. […] The drug concentration resulting in total growth inhibition (TGI) is calculated from Ti = Tz. […] Values are calculated for each of these three parameters if the level of activity is reached; however, if the effect is not reached or is exceeded, the value for that parameter is expressed as greater or less than the maximum or minimum concentration tested.

NCI-H460 = assay: as above; format: cell-based, human; settings: NCI-H460, 10 μM
Method: as §1

NCI-H23 = assay: as above; format: cell-based, human; settings: NCI-H23, 10 μM
Method: as §1

NCI-H522 = assay: as above; format: cell-based, human; settings: NCI-H522, 10 μM
Method: as §1

HOP-92 = assay: as above; format: cell-based, human; settings: HOP-92, 10 μM
Method: as §1

NCI-H226 = assay: as above; format: cell-based, human; settings: NCI-H226, 10 μM
Method: as §1

A549/ATCC = assay: as above; format: cell-based, human; settings: 10 μM
Method: as §1

NCI-H322M = assay: as above; format: cell-based, human; settings: 10 μM
Method: as §1

KM12 = assay: NCI 60 panel growth inhibition (SRB), colon cancer; format: cell-based, human; settings: KM12, 10 μM
Method: as §1

HCC-2998 = assay: NCI 60 panel growth inhibition (SRB), colon cancer; format: cell-based, human; settings: HCC-2998, 10 μM
Method: as §1

SW-620 = assay: NCI 60 panel growth inhibition (SRB), colon cancer; format: cell-based, human; settings: SW-620, 10 μM
Method: as §1

HCT-15 = assay: NCI 60 panel growth inhibition (SRB), colon cancer; format: cell-based, human; settings: HCT-15, 10 μM
Method: as §1

HCT-116 = assay: NCI 60 panel growth inhibition (SRB), colon cancer; format: cell-based, human; settings: HCT-116, 10 μM
Method: as §1

SF-539 = assay: NCI 60 panel growth inhibition (SRB), CNS cancer; format: cell-based, human; settings: SF-539, 10 μM
Method: as §1

SNB-75 = assay: NCI 60 panel growth inhibition (SRB), CNS cancer; format: cell-based, human; settings: SNB-75, 10 μM
Method: as §1

SF-268 = assay: NCI 60 panel growth inhibition (SRB), CNS cancer; format: cell-based, human; settings: SF-268, 10 μM
Method: as §1

U251 = assay: NCI 60 panel growth inhibition (SRB), CNS cancer; format: cell-based, human; settings: U251, 10 μM
Method: as §1

SNB-19 = assay: NCI 60 panel growth inhibition (SRB), CNS cancer; format: cell-based, human; settings: SNB-19, 10 μM
Method: as §1

SF-295 = assay: NCI 60 panel growth inhibition (SRB), CNS cancer; format: cell-based, human; settings: SF-295, 10 μM
Method: as §1

SR = assay: NCI 60 panel growth inhibition (SRB), leukemia; format: cell-based, human; settings: 10 μM
Method: as §1

HL-60(TB) = assay: NCI 60 panel growth inhibition (SRB), leukemia; format: cell-based, human; settings: HL-60(TB), 10 μM
Method: as §1

MOLT-4 = assay: NCI 60 panel growth inhibition (SRB), leukemia; format: cell-based, human; settings: MOLT-4, 10 μM
Method: as §1

RPMI-8226 = assay: NCI 60 panel growth inhibition (SRB), leukemia; format: cell-based, human; settings: RPMI-8226, 10 μM
Method: as §1

K-562 = assay: NCI 60 panel growth inhibition (SRB), leukemia; format: cell-based, human; settings: K-562, 10 μM
Method: as §1

CCRF-CEM = assay: NCI 60 panel growth inhibition (SRB), leukemia; format: cell-based, human; settings: 10 μM
Method: as §1

MALME-3M = assay: NCI 60 panel growth inhibition (SRB), melanoma; format: cell-based, human; settings: 10 μM
Method: as §1

M14 = assay: NCI 60 panel growth inhibition (SRB), melanoma; format: cell-based, human; settings: M14, 10 μM
Method: as §1

SK-MEL-5 = assay: NCI 60 panel growth inhibition (SRB), melanoma; format: cell-based, human; settings: SK-MEL-5, 10 μM
Method: as §1

LOX IMVI = assay: NCI 60 panel growth inhibition (SRB), melanoma; format: cell-based, human; settings: 10 μM
Method: as §1

UACC-257 = assay: NCI 60 panel growth inhibition (SRB), melanoma; format: cell-based, human; settings: UACC-257, 10 μM
Method: as §1

UACC-62 = assay: NCI 60 panel growth inhibition (SRB), melanoma; format: cell-based, human; settings: UACC-62, 10 μM
Method: as §1

SK-MEL-28 = assay: NCI 60 panel growth inhibition (SRB), melanoma; format: cell-based, human; settings: SK-MEL-28, 10 μM
Method: as §1

SMILES	GI% (EKVX)	GI% (NCI-H460)	GI% (NCI-H23)	GI% (NCI-H522)	GI% (HOP-92)	GI% (NCI-H226)	GI% (A549/ATCC)	GI% (NCI-H322M)	GI% (KM12)	GI% (HCC-2998)	GI% (SW-620)	GI% (HCT-15)	GI% (HCT-116)	melting point	GI% (SF-539)	GI% (SNB-75)	GI% (SF-268)	GI% (U251)	GI% (SNB-19)	GI% (SF-295)	also measured
COc1ccc(-c2nc3ccccc3s2)cc1OCC(=O)NN=C1C(=O)Nc2ccccc21 [Compound 9m, 2-(5-(Benzo[d]thiazol-2-yl)-2-methoxyphenoxy)-N′-(2-oxoindolin-3-ylidene) acetohydrazide]	– (GI% < 5%)	17.38%	14.06%	7.23%	– (GI% < 5%)	– (GI% < 5%)	– (GI% < 5%)	– (GI% < 5%)	– (GI% < 5%)	– (GI% < 5%)	29.93%	10.77%	41.54%	192 to 194 °C	10.76%	– (GI% < 5%)	– (GI% < 5%)	13.36%	– (GI% < 5%)	– (GI% < 5%)	GI% (SR): 12.20%; GI% (HL-60(TB)): – (GI% < 5%); GI% (MOLT-4): 23.70%; GI% (RPMI-8226): 25.46%; GI% (K-562): 11.23%; GI% (CCRF-CEM): 40.05%; GI% (MALME-3M): – (GI% < 5%); GI% (M14): – (GI% < 5%); GI% (SK-MEL-5): – (GI% < 5%); GI% (LOX IMVI): 18.28%; GI% (UACC-257): – (GI% < 5%); GI% (UACC-62): – (GI% < 5%); GI% (SK-MEL-28): – (GI% < 5%)
COc1ccc(-c2nc3ccccc3s2)cc1OCC(=O)NN=C1C(=O)Nc2ccc(Br)cc21 [Compound 9r, 2-(5-(Benzo[d]thiazol-2-yl)-2-methoxyphenoxy)-N′-(5-bromo-2-oxoindolin-3-ylidene)acetohydrazide]	7.18%	– (GI% < 5%)	20.81%	8.27%	32.33%	10.50%	7.78%	– (GI% < 5%)	– (GI% < 5%)	– (GI% < 5%)	7.61%	– (GI% < 5%)	30.23%	271 to 273 °C	21.62%	– (GI% < 5%)	– (GI% < 5%)	30.21%	48.19%	– (GI% < 5%)	GI% (SR): – (GI% < 5%); GI% (HL-60(TB)): – (GI% < 5%); GI% (MOLT-4): 13.12%; GI% (RPMI-8226): 19.17%; GI% (K-562): 24.52%; GI% (CCRF-CEM): 42.87%; GI% (MALME-3M): 11.71%; GI% (M14): 9.47%; GI% (SK-MEL-5): – (GI% < 5%); GI% (LOX IMVI): 38.27%; GI% (UACC-257): – (GI% < 5%); GI% (UACC-62): – (GI% < 5%); GI% (SK-MEL-28): – (GI% < 5%)
COc1ccc(-c2nc3ccccc3s2)cc1OCC(=O)NN=C1C(=O)Nc2ccc([N+](=O)[O-])cc21 [Compound 9p, 2-(5-(Benzo[d]thiazol-2-yl)-2-methoxyphenoxy)-N′-(5-nitro-2-oxoindolin-3-ylidene)acetohydrazide]	9.22%	– (GI% < 5%)	47.90%	42.45%	99.07%	67.22%	7.06%	6.14%	– (GI% < 5%)	– (GI% < 5%)	– (GI% < 5%)	– (GI% < 5%)	47.25%	288 to 290 °C	65.68%	120.44%	53.94%	78.07%	86.59%	89.39%	GI% (SR): – (GI% < 5%); GI% (HL-60(TB)): – (GI% < 5%); GI% (MOLT-4): – (GI% < 5%); GI% (RPMI-8226): – (GI% < 5%); GI% (K-562): – (GI% < 5%); GI% (CCRF-CEM): 9.28%; GI% (MALME-3M): 8.36%; GI% (M14): – (GI% < 5%); GI% (SK-MEL-5): 5.61%; GI% (LOX IMVI): 13.12%; GI% (UACC-257): – (GI% < 5%); GI% (UACC-62): 19.19%; GI% (SK-MEL-28): – (GI% < 5%)
COc1ccc(-c2nc3ccccc3s2)cc1OCC(=O)NN=C1C(=O)Nc2ccc(Cl)cc21 [Compound 9q, 2-(5-(Benzo[d]thiazol-2-yl)-2-methoxyphenoxy)-N′-(5-chloro-2-oxoindolin-3-ylidene)acetohydrazide]	25.37%	44.39%	42.70%	21.77%	52.70%	24.77%	20.18%	– (GI% < 5%)	17.57%	– (GI% < 5%)	51.82%	36.40%	72.84%	260 to 262 °C	34.10%	15.62%	27.89%	63.50%	63.00%	23.77%	GI% (SR): 18.57%; GI% (HL-60(TB)): – (GI% < 5%); GI% (MOLT-4): 71.36%; GI% (RPMI-8226): 46.48%; GI% (K-562): 50.00%; GI% (CCRF-CEM): 81.35%; GI% (MALME-3M): 26.21%; GI% (M14): 23.59%; GI% (SK-MEL-5): 12.80%; GI% (LOX IMVI): 72.29%; GI% (UACC-257): – (GI% < 5%); GI% (UACC-62): 12.95%; GI% (SK-MEL-28): – (GI% < 5%)
